The values below come from patent US10226435B2, “Compositions and methods for restoring the stratum corneum and treating dermatological diseases” (New York University, priority 2011, dated 2019).

One series relates to colon cancer. The settings on record: rats, 1,2-dimethylhydrazine induced, 8 mg/kg, p<0.01; cited from earlier work.
The next series concerns breast cancer. Particulars: rats, ionizing radiation or DMBA; cited from earlier work.
For series [1], the system named is inflammation-relevant gene expression. The settings on record: rat skin, x-rays; cited from earlier work.
The test system of series [2] is human transplanted pancreatic adenocarcinomas. Particulars: growth of human transplanted pancreatic adenocarcinomas; cited from earlier work.
Series [3] has as its system skin of SKH1 hairless mice. Nature of the series: Sunburn (erythema) prevention by terpenes in UVR-exposed hairless mice. The settings on record: 4 daily 30 microL droplets per os before 15 minute exposure to 3.0 kJ/m2 UVR.
Method: All experiments were performed with female hairless mice (SKH1) utilizing solar spectrum ultraviolet radiation (UVR). Each experiment was performed in triplicate including controls and UVR-exposed mice and included a total of 22 mice per experiment for a total of 66 mice. The protocol included untreated mice, UVR-irradiated mice as controls for the terpene treatments, UVR+terpene mice and terpene-only mice.
Four solar simulating FS-20 fluorescent lamps were used to deliver 3 kJ/m^2 measured by a calibrated International Light UV radiometer at the lamp distance between 20 to 24 cm. The UVR dose was selected to be just above the minimal erythemal dose for producing a ‘sunburn’ reaction in mouse skin (this is very similar to the minimal erythemal dose of fair-skinned humans).
Each terpene was given to each mouse per os (by mouth) in 15-30 μL droplets (˜15-30 μg) via micropipette once each day for 4 consecutive days prior to and/or subsequent to UVR exposure. Animals were observed and photographed every 24 hours for a period of 6-7 days after the irradiation. Each terpene was administered in pure form.
The UVR exposure of 3 kJ/m^2 was delivered seven (7) days after the last dose was administered. The animals were observed and photographed. […] Liponeate, a triglyceride fraction of coconut oil was used as a diluent. Concentration 1, 10 and 100% were tested. […]
The subject of series [4] is mouse skin gene expression. Nature of the series: Gene expression microarray analysis of mouse skin. Format: in vivo. Particulars: for loricrin and filaggrin and vascular endothelial growth factor (VEGF) genes / matrix metalloproteinases: ingestion, animal models; for inflammation genes induced by UVR: per os daily for 4 days in 30 microL droplets prior to irradiation. As for the experimental part: Animals for the histology and microarray analysis were euthanized 24 hours after 4 days of terpene pre-feed and the UVR exposure.
Gene expression microarray analysis was performed as follows: RNA was extracted from a 0.1 g sample of mouse skin and an equal quantity of keratinocytes by using the TRIZOL reagent (Invitrogen, Carlsbad, Calif., USA) according to the manufacture's instructions and 200 μg of total RNA was used for the isolation of poly A+mRNA by using Oligotex mRNA mini columns (QIAGEN, Valencia, Calif., USA). The final centrifugation was performed after the incubation with 1/10 volume of 3.0 M NaOAc, 2.5 volumes of ethanol and 1 μl glycogen (Boehringer Mannheim GmbH, Mannheim, Germany) at −20° C. overnight. Then the pellet was resuspended in diethylpyrocarbonate (DEPC)-treated water. RNA was labeled with biotin and hybridized to a Mouse genome 430_2 GeneChip® microarray (Affymetrix, Inc. Santa Clara, Calif., USA). Data from the Affymetrix mouse expression array chip were imported into the BRB-ArrayTools Version 3.3.0 developed by the Biometric Research Branch of the U.S. National Cancer Institute for normalization and analysis. […] A value of P≤0.001 was chosen as statistically significant. […] For these calculations the entire list of genes on the Affymetrix (mouse 430_2) microarray was used as the reference list.
Mice were treated with either UVR or UVR+beta-damascenone, and samples of tissue were removed from the dorsal skin for RNA extraction and analysis on an Affymetrix Microarray System utilizing mouse whole genome array chips Affy 430_2. The UVR sample served as the control in this preliminary experiment.

Series [5] deals with dorsal skin of hairless mice. Nature of the series: β-damascenone-induced sunburn protection study in hairless mice. The settings on record: read 5 days later. Format: in vivo, mouse. The source says: The present experiment will be performed for evaluating the effectiveness and persistence of sunburn protection afforded by different doses and exposure regimens of a test terpene, β-damascenone. Female SKH-1 strain mice, obtained from Charles River Breeding Labs, Wilmington, Mass., will be fed per os various amounts of the terpene as indicated in the following Tables 4 and 5.

For series [6], the system named is skin. Particulars: in vivo; cited from earlier work.
Series [7] concerns skin. Particulars: in vivo; cited from earlier work. The source holds these as a separate data set.
For series [8] the following is noted: in vivo; cited from earlier work.
Series [9] concerns stratum corneum of Skh1 mouse skin. Nature of the series: Thickness of nucleated keratinocyte portion of epidermis versus stratum corneum, H&E histology. It is filed as in vivo. From the text:
1. Skin and epidermal thickness (as measured by histology);

The next series has as its system skin inflammation. The settings on record: topical preventive treatment 3 days at 10 mg/kg/day before induction; cited from earlier work.
The mark [10] stands for this setting: Group 2, 20 uL × 4 by feeding tube, UVR 1.5 kJ/m^2 5 days after final dose.
[11] abbreviates: Group 3, 10 uL × 4 by feeding tube, UVR 1.5 kJ/m^2 5 days after final dose.
[12] abbreviates: Group 4 (replication of group 2), 20 uL × 4 by feeding tube, UVR 1.5 kJ/m^2 5 days after final dose.
Setting [13] is: Group 5, 10 uL × 1 by feeding tube, UVR 1.5 kJ/m^2 5 days after dose.
Setting [14] is: Group 6, 20 uL × 1 by feeding tube, UVR 1.5 kJ/m^2 5 days after dose.
[15] abbreviates: Group 7, 40 uL × 1 by feeding tube, UVR 1.5 kJ/m^2 5 days after dose.
The mark [16] stands for this setting: Groups 2 + 4 combined, 20 uL × 4, UVR 1.5 kJ/m^2 5 days after final dose.
Where [17] appears, read: Group 2, 20 μL ×1 oral, section 1 d after final administration, total 20 μL.
Where [18] appears, read: Group 3, 10 μL ×4 oral, section 1 d after final administration, total 40 μL.
The mark [19] stands for this setting: Group 4, 20 μL ×4 oral, section 1 d after final administration, total 80 μL.
[20] abbreviates: Group 5, 80 μL ×1 oral, section 1 d after final administration, total 80 μL.
Where [21] appears, read: Group 6, 20 μL ×1 oral, section 5 d after final administration, total 20 μL.
The mark [22] stands for this setting: Group 7, 10 μL ×4 oral, section 5 d after final administration, total 40 μL.
The mark [23] stands for this setting: Group 8, 80 μL ×1 oral, section 5 d after final administration, total 80 μL.
Setting [24] is: Group 9, 20 μL ×4 oral, section 5 d after final administration, total 80 μL.
Setting [25] is: Group 10, 10 μL ×4 oral, section 12 d after final administration, total 40 μL.
Where [26] appears, read: Group 11, 20 μL ×4 oral, section 12 d after final administration, total 80 μL.
The mark [27] stands for this setting: day 5 after the exposures were completed.
Where [28] appears, read: UVR+beta-damascenone relative to UVR only.

For the compound `Oc1ccc(C=Cc2cc(O)cc(O)c2)cc1` [resveratrol], the “inhibition of colon cancer” value in the series on colon cancer is 67%.

Turning to `C=C(C)[C@H]1CC=C(C)CC1` [d-limonene], in the series with breast cancer, the “initiation of breast cancer” value is “almost completely prevented”.

On to vitamin A, for which the “inflammation-relevant gene expression alterations blocked” value in series [1] is reported as “about 80%”.

`CC(C)=CCC/C(C)=C/CO` [Geraniol]: the “effectiveness relative to perillyl alcohol” value in series [2] was “about 5 fold”.

With `C=C(C)[C@@H]1CCC2=CC(=O)C[C@@H](C)[C@]2(C)C1` [nootkatone], in series [3], the “cutaneous inflammation and erythema after UVR” value was “blocked”. In series [4], the “loricrin and filaggrin and vascular endothelial growth factor (VEGF) genes” value is recorded as “upregulation”; the matrix metalloproteinases result is recorded as “downregulation”; the “inflammation genes induced by UVR” value was “blocked”.

Turning to `C/C=C/C(=O)C1=C(C)C=CCC1(C)C` [beta-damascenone], the “Areas with no sunburn” value stood at 11.0 in series [5] (setting [10]); 6.0 in [5] (setting [11]); 8.0 in [5] (setting [12]); 7.0 in series [5] (setting [13]); 10.0 in series [5] (setting [14]); 3.0 in series [5] (setting [15]). In series [5] (setting [16]), the “Areas with no sunburn” value is given as 19.0. For the same compound, the Areas with sunburn in series [5] (setting [10]) is 1.0; in [5] (setting [11]), 2.0; in [5] (setting [12]) it was 0.0; in series [5] (setting [13]) it was 5.0; in series [5] (setting [14]), 2.0; in [5] (setting [15]) it was 1.0. Moreover, the Areas with sunburn in [5] (setting [16]) worked out at 1.0. The phototoxicity or photoallergenity entry with skin [6] was “No phototoxicity or photoallergenity”. In the series on skin [7], the skin irritation result is “No skin irritation”. The LD50 result in [8] was “greater than 2.0 g/kg”. Moreover, the “Living Epidermis Thickness” value in [9] (Average (Groups 2-11)) was found to be 34.6 arbitrary units; in series [9] (setting [17]), 35.0 arbitrary units; in series [9] (setting [18]), 37.0 arbitrary units; in series [9] (setting [19]) it was 36.0 arbitrary units; in series [9] (setting [20]) it was 36.0 arbitrary units; in series [9] (setting [21]), 38.5 arbitrary units. Further, the “Living Epidermis Thickness” value amounted to 40.2 arbitrary units in series [9] (setting [22]); 36.2 arbitrary units in series [9] (setting [23]); 32.5 arbitrary units in [9] (setting [24]); 30.7 arbitrary units in series [9] (setting [25]); 23.3 arbitrary units in series [9] (setting [26]). The “Stratum Corneum Thickness” value in series [9] (Average (Groups 2-11)) came to 21.0 arbitrary units; in [9] (setting [17]), 20.0 arbitrary units; in [9] (setting [18]), 15.3 arbitrary units; in series [9] (setting [19]), 17.8 arbitrary units; in series [9] (setting [20]), 16.3 arbitrary units; in series [9] (setting [21]), 37.0 arbitrary units. Also, the “Stratum Corneum Thickness” value amounted to 20.2 arbitrary units in series [9] (setting [22]); 25.5 arbitrary units in series [9] (setting [23]); 21.2 arbitrary units in [9] (setting [24]); 18.7 arbitrary units in series [9] (setting [25]); 21.7 arbitrary units in [9] (setting [26]). Further, the “nucleated keratinocytes in the epidermis” value in series [9] (setting [27]) is on record as “no corresponding increase”. In addition, the “thickness of the stratum corneum” value in [9] (setting [27]) is given as “highly significant increases”. Moreover, the “stratum corneum thickness (FIG. 4)” value in [9] (mouse, in vivo) was “consistently thickened”. For the same compound, the “cutaneous inflammation and erythema after UVR” value in [3] is on record as “blocked”. Further, the inflammation-relevant genes result in series [4] (setting [28]) is “strongly down-regulated”. In addition, the “number of gene categories significantly (p<0.05) down-regulated” value in series [4] (setting [28]) was determined as 13. In addition, in [4] (setting [28]), the “only significantly (p<0.05) altered up-regulated category at level 4 of Gene Ontology Tree” value is on record as “epidermal cell differentiation”. In series [4], the “loricrin and filaggrin and vascular endothelial growth factor (VEGF) genes” value is “upregulation”. In addition, the matrix metalloproteinases entry in [4] is reported as “downregulation”. In addition, the “inflammation genes induced by UVR” value in series [4] is recorded as “blocked”.

For `C=C(C)[C@@H]1CC=C(CO)CC1` [perillyl alcohol, reference compound], the “initiation of breast cancer” value with breast cancer is recorded as “almost completely prevented”. For the same compound, the “effect on skin inflammation” value with skin inflammation was “significant effect”.
